Results: patent publication US12018059B2, “Human amylin analog polypeptides and methods of use” (Intarcia Therapeutics, Inc., priority 2018, dated 2024)
Starred links: 1 amine or outer side, 2 acyl side, 3 side chain; linkers in the order of their positions; H or OH if unused. Positions of bridges follow the written chain, without caps; N, C: chain ends. Non-standard residues stand in square brackets, D forms with d. Residues, ends and D or L forms follow the SMILES beside them. Groups on a side chain read outwards from the residue. *: point of attachment. γGlu = O=C(O)[C@H](CCC(=O)[*:2])N[*:1]; Palmitoyl = CCCCCCCCCCCCCCCC(=O)*; X5 = O=C(O)CCCCCCCCCCCC(=O)*; AEEA = NCCOCCOCC(=O)O

Assay: in vivo
Parameters: species or system Sprague-Dawley rats
Settings: rat, iv, 0.033 mg/kg
Procedure: Peptides were dissolved in sterile saline and administered as a 1-hour intravenous infusion to non-fasted male Sprague-Dawley rats (n=3 per group) via femoral vein cannula at a final dose of 0.033 mg/kg. […] Blood samples (approximately 250 μL) were collected for pharmacokinetic analysis via a jugular vein cannula at 0.25, 0.5, 0.75, 1, 1.17, 1.33, 1.5, 2, 4, 6, 8, 24, 30 and 48 hr post-start of infusion into microtainer tubes containing K2EDTA as anticoagulant and 25 μL of a protease inhibitor cocktail. Plasma was prepared by centrifugation and stored at −80° C. until analysis. The results of this analysis are shown in Table 9 and few exemplars in FIGS. 3a-3b. […]
A 60 μL aliquot of each plasma sample was placed into to a 96-well plate. To each well was added 6 μL of 0.5% Tween-20. Plates were then vortexed mixed for 10 minutes at 1200 rpm before 180 μL of 0.1% TFA in 2:1 ethanol:acetonitrile containing an appropriate internal standard was added to each well. Plates were vortex mixed for 5 min at 1300 rpm, and then centrifuged for 10 min at 2844×g. Supernatants (180 μL) were placed into a clean 96-well plate and evaporated under a nitrogen stream at 45° C. Residues were reconstituted in 80 μL of 20% acetonitrile (aq) containing 0.1% formic acid.
A […] aliquot of each plasma sample was diluted with […] of 10 mM ammonium acetate (pH 6.8) containing an appropriate internal standard and loaded onto an Oasis WCX microElution plate (Waters Corporation, Milford, MA) that had been pre-conditioned with […] of methanol and […] of deionized water. Samples were washed with […] of 5% ammonium hydroxide (aq) followed by […] of 20% acetonitrile in water. The analyte was eluted with […] of 5% formic acid in 75:25 acetonitrile:water. The eluent was dried under a nitrogen stream. Residues were reconstituted in 80 μL of 20% acetonitrile (aq) containing 0.1% formic acid.
All calibration standards were prepared in control rat plasma containing K2EDTA and protease inhibitor cocktail.
Samples and standards were analyzed by TurbolonSpray™ UPLC-MS/MS using a system consisting of a CTC HTS PAL auto-injector (Leap, Carrboro, NC), an Agilent Infinity 1290 system with column oven (Palo Alto, CA), a Valco switching valve (Houston, TX), and either an AB Sciex API 5600 TripleTOF™ or Sciex API 4000QTrap mass spectrometer (Framingham, MA). Samples were injected onto a 2.1×50 mm reverse phase C18 analytical column, typically a Waters CORTECS UPLC C18+, 1.6 μm (Waters Corporation, Milford, MA) or similar. […] Initial conditions consisted of 90% A and 10% B. The organic component was increased to 95% B over a period of 3-4 minutes, depending on the peptide. Typical flow rates were 600 μL/min. The column temperature was held constant at 40 or 50° C. Peptides were quantified by monitoring one or more product ions produced from a multiply charged parent ion.

Row | Structure (SMILES) | Vd [L/kg] | clearance [mL/min/kg] | half-life [h]
1 | CCCCCCCCCCCCCCCC(=O)N[C@@H](CCC(=O)N[C@@H](CCC(=O)N[C@@H](CCC(=O)N[C@@H](CCC(=O)NCCCC[C@H](NC(=O)[C@H](CCC(=O)O)NC(=O)[C@H](CC(N)=O)NC(=O)[C@H](C)NC(=O)[C@H](CC(C)C)NC(=O)[C@H](CCCNC(=N)N)NC(=O)[C@H](CCC(N)=O)NC(=O)[C@@H](NC(=O)[C@H](C)NC(=O)[C@@H]1CSSC[C@H](NC(=O)[C@@H](N)CO)C(=O)N[C@@H](CC(N)=O)C(=O)N[C@@H]([C@@H](C)O)C(=O)N[C@@H](CO)C(=O)N[C@@H]([C@@H](C)O)C(=O)N1)[C@@H](C)O)C(=O)N[C@@H](Cc1c[nH]cn1)C(=O)N[C@@H](CCCCN)C(=O)N[C@@H](CO)C(=O)N[C@@H](CO)C(=O)N[C@@H](CC(N)=O)C(=O)N[C@@H](CC(N)=O)C(=O)N[C@@H](Cc1ccccc1)C(=O)NCC(=O)N1CCC[C@H]1C(=O)N[C@H](C(=O)N[C@@H](CC(C)C)C(=O)N1CCC[C@H]1C(=O)N1CCC[C@H]1C(=O)N[C@H](C(=O)N[C@@H](CCCCN)C(=O)N[C@H](C(=O)NCC(=O)N[C@@H](CO)C(=O)N[C@@H](CCC(=O)O)C(=O)N[C@H](C(=O)N[C@@H](Cc1ccc(O)cc1)C(N)=O)[C@@H](C)O)C(C)C)[C@@H](C)O)[C@@H](C)CC)C(=O)O)C(=O)O)C(=O)O)C(=O)O [Compound A21] (H-SCNTSTCATQRLANEK([γGlu-γGlu-γGlu-γGlu-Palmitoyl])HKSSNNFGPILPPTKVGSETY-NH2; disulfide 2-7) | 0.131 | 0.178 | 10.4
2 | CCCCCCCCCCCCCCCC(=O)N[C@@H](CCC(=O)NCCOCCOCC(=O)NCCOCCOCC(=O)N[C@@H](CCC(=O)NCCCC[C@@H](NC(=O)[C@H](CCC(=O)O)NC(=O)[C@H](CC(N)=O)NC(=O)[C@H](C)NC(=O)[C@H](CC(C)C)NC(=O)[C@H](CCCNC(=N)N)NC(=O)[C@H](CCC(N)=O)NC(=O)[C@@H](NC(=O)[C@H](C)NC(=O)[C@@H]1CSSC[C@H](NC(=O)[C@@H](N)CO)C(=O)N[C@@H](CC(N)=O)C(=O)N[C@@H]([C@@H](C)O)C(=O)N[C@@H](CO)C(=O)N[C@@H]([C@@H](C)O)C(=O)N1)[C@@H](C)O)C(=O)N[C@@H](Cc1c[nH]cn1)C(=O)N[C@@H](CCCCN)C(=O)N[C@@H](CO)C(=O)N[C@@H](CO)C(=O)N[C@@H](CC(N)=O)C(=O)N[C@@H](CC(N)=O)C(=O)N[C@@H](Cc1ccccc1)C(=O)NCC(=O)N1CCC[C@H]1C(=O)N[C@H](C(=O)N[C@@H](CC(C)C)C(=O)N1CCC[C@H]1C(=O)N1CCC[C@H]1C(=O)N[C@H](C(=O)N[C@@H](CCCCN)C(=O)N[C@H](C(=O)NCC(=O)N[C@@H](CO)C(=O)N[C@@H](CCC(=O)O)C(=O)N[C@H](C(=O)N[C@@H](Cc1ccc(O)cc1)C(N)=O)[C@@H](C)O)C(C)C)[C@@H](C)O)[C@@H](C)CC)C(=O)O)C(=O)O [Compound A25] (H-SCNTSTCATQRLANE[dK]([γGlu-AEEA-AEEA-γGlu-Palmitoyl])HKSSNNFGPILPPTKVGSETY-NH2; disulfide 2-7; N-terminus assumed) | 0.249 | 0.788 | 4.97
3 | CC[C@H](C)[C@H](NC(=O)[C@@H]1CCCN1C(=O)CNC(=O)[C@H](Cc1ccccc1)NC(=O)[C@H](CC(N)=O)NC(=O)[C@H](CC(N)=O)NC(=O)[C@H](CO)NC(=O)[C@H](CO)NC(=O)[C@H](CCCCN)NC(=O)[C@H](Cc1c[nH]cn1)NC(=O)[C@H](CC(C)C)NC(=O)[C@H](CCCCNC(=O)CCCCCCCCCCCC(=O)O)NC(=O)[C@H](CC(N)=O)NC(=O)[C@H](C)NC(=O)[C@H](CC(C)C)NC(=O)[C@H](CCCNC(=N)N)NC(=O)[C@H](CCC(N)=O)NC(=O)[C@@H](NC(=O)[C@H](C)NC(=O)[C@@H]1CSSC[C@H](NC(=O)[C@@H](N)CO)C(=O)N[C@@H](CC(N)=O)C(=O)N[C@@H]([C@@H](C)O)C(=O)N[C@@H](CO)C(=O)N[C@@H]([C@@H](C)O)C(=O)N1)[C@@H](C)O)C(=O)N[C@@H](CC(C)C)C(=O)N1CCC[C@H]1C(=O)N1CCC[C@H]1C(=O)N[C@H](C(=O)N[C@@H](CCCCN)C(=O)N[C@H](C(=O)NCC(=O)N[C@@H](CO)C(=O)N[C@@H](CCC(=O)O)C(=O)N[C@H](C(=O)N[C@@H](Cc1ccc(O)cc1)C(N)=O)[C@@H](C)O)C(C)C)[C@@H](C)O [Compound A31] (H-SCNTSTCATQRLANK(X5)LHKSSNNFGPILPPTKVGSETY-NH2; disulfide 2-7) | 0.57 | 18.9 | 0.404

Other lines, results leading:

Row | Vd [L/kg] | clearance [mL/min/kg] | half-life [h] | Structure (SMILES)
4 | 0.17 | 0.485 | 5.41 | CCCCCCCCCCCCCCCC(=O)N[C@@H](CCC(=O)N[C@@H](CCC(=O)NCCCC[C@@H](NC(=O)[C@H](CCC(=O)O)NC(=O)[C@H](CCC(N)=O)NC(=O)[C@H](C)NC(=O)[C@H](CC(C)C)NC(=O)[C@H](CCCNC(=N)N)NC(=O)[C@H](CCC(N)=O)NC(=O)[C@@H](NC(=O)[C@H](C)NC(=O)[C@@H]1CSSC[C@H](NC(=O)[C@@H](N)CO)C(=O)N[C@@H](CC(N)=O)C(=O)N[C@@H]([C@@H](C)O)C(=O)N[C@@H](CO)C(=O)N[C@@H]([C@@H](C)O)C(=O)N1)[C@@H](C)O)C(=O)N[C@@H](Cc1c[nH]cn1)C(=O)N[C@@H](CCCCN)C(=O)N[C@@H](CO)C(=O)N[C@@H](CO)C(=O)N[C@@H](CC(N)=O)C(=O)N[C@@H](CC(N)=O)C(=O)N[C@@H](Cc1ccccc1)C(=O)NCC(=O)N1CCC[C@H]1C(=O)N[C@H](C(=O)N[C@@H](CC(C)C)C(=O)N1CCC[C@H]1C(=O)N1CCC[C@H]1C(=O)N[C@H](C(=O)N[C@@H](CCCCN)C(=O)N[C@H](C(=O)NCC(=O)N[C@@H](CO)C(=O)N[C@@H](CCC(=O)O)C(=O)N[C@H](C(=O)N[C@@H](Cc1ccc(O)cc1)C(N)=O)[C@@H](C)O)C(C)C)[C@@H](C)O)[C@@H](C)CC)C(=O)O)C(=O)O [Compound A28] (H-SCNTSTCATQRLAQE[dK]([γGlu-γGlu-Palmitoyl])HKSSNNFGPILPPTKVGSETY-NH2; disulfide 2-7)
5 | 0.244 | 3.93 | 1.32 | CCCCCCCCCCCCCCCC(=O)N[C@@H](CCC(=O)NCCCC[C@@H](NC(=O)[C@H](CCC(=O)O)NC(=O)[C@H](CC(N)=O)NC(=O)[C@H](C)NC(=O)[C@H](CC(C)C)NC(=O)[C@H](CCCNC(=N)N)NC(=O)[C@H](CCC(N)=O)NC(=O)[C@@H](NC(=O)[C@H](C)NC(=O)[C@@H]1CSSC[C@H](NC(=O)[C@@H](N)CO)C(=O)N[C@@H](CC(N)=O)C(=O)N[C@@H]([C@@H](C)O)C(=O)N[C@@H](CO)C(=O)N[C@@H]([C@@H](C)O)C(=O)N1)[C@@H](C)O)C(=O)N[C@@H](Cc1c[nH]cn1)C(=O)N[C@@H](CCCCN)C(=O)N[C@@H](CO)C(=O)N[C@@H](CO)C(=O)N[C@@H](CC(N)=O)C(=O)N[C@@H](CC(N)=O)C(=O)N[C@@H](Cc1ccccc1)C(=O)NCC(=O)N1CCC[C@H]1C(=O)N[C@H](C(=O)N[C@@H](CC(C)C)C(=O)N1CCC[C@H]1C(=O)N1CCC[C@H]1C(=O)N[C@H](C(=O)N[C@@H](CCCCN)C(=O)N[C@H](C(=O)NCC(=O)N[C@@H](CO)C(=O)N[C@@H](CCC(=O)O)C(=O)N[C@H](C(=O)N[C@@H](Cc1ccc(O)cc1)C(N)=O)[C@@H](C)O)C(C)C)[C@@H](C)O)[C@@H](C)CC)C(=O)O [Compound A36] (H-SCNTSTCATQRLANE[dK]([γGlu-Palmitoyl])HKSSNNFGPILPPTKVGSETY-NH2; disulfide 2-7)
